Results published in patent publication US8703761B2, “Organic compounds” (Novartis AG, priority 2008, dated 2014).

The compounds below were run against human DGAT1 (Homo sapiens (Human), UniProt O75907) (assay: DGAT1 Inhibition Assay). Details: membrane preparation from Sf9 cells overexpressing human (His)6DGAT1; LC/MS/MS readout.
Assay type: biochemical
Description: The enzyme preparation used in this assay is a membrane preparation from Sf9 cells overexpressing human (His)6DGAT1. During all steps samples were chilled to 4° C. Sf9 cells expressing human (His)6DGAT1 were thawed at room temperature and re-suspended at a 10:1 ratio (mL buffer/g of cells) in 50 mM HEPES, 1× Complete Protease Inhibitor, pH 7.5. The re-suspended pellet was homogenized for 1 min using a Brinkman PT 10/35 homogenizer with a 20 mm generator. Cells were lysed using Avestin Emulsiflex (chilled to 4° C.) at 10000-15000 psi. Lysate was centrifuged at 100,000×g for 1 h at 4° C. Supernatant was removed and pellets were re-suspended in 50 mM HEPES, 1× Complete Protease Inhibitor, pH 7.5 at ⅙ the volume of supernatant. Re-suspended pellets were pooled and homogenized with 10 strokes of a Glas-Col motor driven teflon pestle on setting 70. The protein concentration of the membrane preparation was quantified using BCA protein assay with 1% SDS. The membrane preparation was aliquoted, frozen on dry ice, and stored at −80° C.
For 50 mL, 25 mL of 0.2 M HEPES stock buffer, 0.5 mL of 1 M MgCl2 ([…]), and 24.5 mL of milli-Q H2O are added to the 55 mL Wheaton Potter-Elvehjem homogenizer. Enzyme preparation (0.1 mL) is added to buffer and the mixture is homogenized with 5 strokes on ice using the Glas-Col variable speed homogenizer system on setting 70.
For 50 mL, 0.5 mL 10 mM diolein is added to 9.5 mL of EtOH in a 50 mL Falcon screw cap conical centrifuge tube. Five mL of 10 mM sodium acetate pH 4.5 is added followed by 0.5 mL of 10 mM oleoyl-CoA. Finally, the remaining 4.5 mL of 10 mM sodium acetate pH 4.5 is added followed by 30 mL of milli-Q H20. The solution should be gently agitated by hand to induce mixing. The final concentrations of EtOH and sodium acetate are 20% and 2 mM, respectively.
Dry compounds are dissolved in the appropriate volume of DMSO to a final concentration of 10 mM. A 10-point, 3-fold dose response is used to evaluate compound potency. All dilutions are performed in DMSO in a Greiner 384-well microplate. • 1. 2 μL of compound in DMSO is added to the appropriate wells, 2 μL of DMSO is added to 100% activity and 100% inhibition controls. • 2. 25 μL of enzyme mix is added to all wells and plate(s) are incubated for 10 min at RT. • 3. 10 μL of 20% acetic acid quench is added to 100% inhibition control wells. Plate(s) are vortexed using Troemner multi-tube vortexer (setting 7 for 10 sec). • 4. 25 μL of substrate mix is added to all wells. Plate(s) are vortexed using Troemner multi-tube vortexer (setting 7 for 10 sec). Plate(s) are incubated for 30 min at RT. • 5. 10 μL of 20% acetic acid quench is added to all wells. Plate(s) are vortexed using Troemner multi-tube vortexer (setting 7 for 10 sec). • 6. 50 μL of 1-butanol w/glyceryl tripalmitoleate internal standard is added to all wells. • 7. Plate(s) are sealed with super pierce strong plate sealer using the thermo-sealer. • 8. Plate(s) are vortexed using Troemner multi-tube vortexer (setting 10 for 5 min). • 9. Plate(s) are centrifuged at 162×g (1000 rpm for GH-3.8 rotor) for 5 min using Beckman GS-6R tabletop centrifuge.
Samples were analyzed by LC/MS/MS using a Waters 1525μ LC and Quattro Micro API MS. Where indicated, tripalmitolein was used as an internal standard to control for instrument variation.
Data is converted to % inhibition prior to curve fitting using the following equation: […]

Chain of human DGAT1 (O75907 whole entry): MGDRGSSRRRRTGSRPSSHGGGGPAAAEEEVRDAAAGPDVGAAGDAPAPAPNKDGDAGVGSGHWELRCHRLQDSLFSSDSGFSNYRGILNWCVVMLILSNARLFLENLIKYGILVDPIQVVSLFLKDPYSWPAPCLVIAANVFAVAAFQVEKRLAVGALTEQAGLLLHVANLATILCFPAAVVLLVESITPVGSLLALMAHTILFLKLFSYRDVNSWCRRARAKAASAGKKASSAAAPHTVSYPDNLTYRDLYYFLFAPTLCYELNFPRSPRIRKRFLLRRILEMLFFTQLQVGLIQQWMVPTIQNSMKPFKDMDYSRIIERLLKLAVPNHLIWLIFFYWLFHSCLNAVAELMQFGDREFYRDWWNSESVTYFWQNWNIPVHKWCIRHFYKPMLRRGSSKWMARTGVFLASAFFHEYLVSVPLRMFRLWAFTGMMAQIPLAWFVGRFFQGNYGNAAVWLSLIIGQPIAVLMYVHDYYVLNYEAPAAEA

In order of rising IC50:
1. CC(C)(NC(=O)c1ccccn1)C(=O)Nc1nc(-c2ccccc2)c(Cc2ccccc2)s1 [Example 1-29, Pyridine-2-carboxylic acid [1-(5-benzyl-4-phenyl-thiazol-2-ylcarbamoyl)-1-methyl-ethyl]-amide]  3.5 nM
2. COc1ccccc1C(=O)NC(C)(C)C(=O)Nc1nc(-c2ccccc2)c(Cc2ccccc2)s1 [Example 1-8, N-[1-(5-Benzyl-4-phenyl-thiazol-2-ylcarbamoyl)-1-methyl-ethyl]-2-methoxy-benzamide]  8.5 nM
3. CC(C)(NC(=O)c1ccc2occc2c1)C(=O)Nc1nc(-c2ccccc2)c(Cc2ccccc2)s1 [Example 1-28, Benzofuran-5-carboxylic acid [1-(5-benzyl-4-phenyl-thiazol-2-ylcarbamoyl)-1-methyl-ethyl]-amide]  11 nM
4. CC(C)(NC(=O)N1CCOCC1)C(=O)Nc1nc(-c2ccc(F)cc2)c(Oc2ccc(F)cc2)s1 [Example 6-2, Morpholine-4-carboxylic acid {1-[5-(4-fluoro-phenoxy)-4-(4-fluoro-phenyl)-thiazol-2-ylcarbamoyl]-1-methyl-ethyl}-amide]  52.5 nM
5. O=C(Nc1cc(-c2ccccc2)c2ccccc2n1)C1CCCN1C(=O)CC1CCCC1 (stereo in doubt) [Example 8-1, (S)-1-(2-Cyclopentyl-acetyl)-pyrrolidine-2-carboxylic acid (4-phenyl-quinolin-2-yl)-amide]  54.5 nM
6. CCOc1ccc(C(=O)NC(C)(C)C(=O)Nc2nc(-c3ccccc3)c(Cc3ccccc3)s2)cc1OCC [Example 1-1, N-[1-(5-Benzyl-4-phenyl-thiazol-2-ylcarbamoyl)-1-methyl-ethyl]-3,4-diethoxy-benzamide]  60.5 nM
7. CC(C)(NC(=O)c1cncs1)C(=O)Nc1nc(-c2ccc(F)cc2)c(Oc2ccc(F)cc2)s1 [Example 6-14, Thiazole-5-carboxylic acid {1-[5-(4-fluoro-phenoxy)-4-(4-fluoro-phenyl)-thiazol-2-ylcarbamoyl]-1-methyl-ethyl}-amide]  197 nM
8. CC(C)(NC(=O)c1ccccn1)C(=O)Nc1nc(-c2ccc(F)cc2)n(Cc2ccccc2)n1 [Example 14-4, Pyridine-2-carboxylic acid {1-[1-benzyl-5-(4-fluoro-phenyl)-1H-[1,2,4]triazol-3-ylcarbamoyl]-1-methyl-ethyl}-amide]  225 nM
9. Cc1ccccc1NC(=O)N1CCCC1C(=O)Nc1nc(-c2ccccc2)c(Cc2ccccc2)s1 (stereo not shown) [Example 4-2, Pyrrolidine-1,2-dicarboxylic acid 2-[(5-benzyl-4-phenyl-thiazol-2-yl)-amide] 1-o-tolylamide]  232 nM
10. Cc1ccc(-c2cc(NC(=O)[C@@H]3CCCN3C(=O)OC(C)(C)C)nc(-c3ccccc3)c2)cc1 [Example 8-2, (S)-2-(6-Phenyl-4-p-tolyl-pyridin-2-ylcarbamoyl)-pyrrolidine-1-carboxylic acid tert-butyl ester]  240 nM
11. CC(C)(NS(=O)(=O)c1ccc(F)cc1)C(=O)Nc1nc(-c2ccccc2)c(Cc2ccccc2)s1 [Example 1-6, N-(5-Benzyl-4-phenyl-thiazol-2-yl)-2-(4-fluoro-benzenesulfonylamino)-2-methyl-propionamide]  241 nM
12. O=C(Nc1nc(-c2ccccc2)c(Cc2ccccc2)s1)[C@@H]1CCCN1C(=O)Nc1ccc(C(F)(F)F)cc1F [Example 4-9, (S)-Pyrrolidine-1,2-dicarboxylic acid 2-[(5-benzyl-4-phenyl-thiazol-2-yl)-amide] 1-[(2-fluoro-4-trifluoromethyl-phenyl)-amide]]  473 nM
13. CC(C)(NC(=O)c1cccnc1)C(=O)Nc1nc(-c2ccc(F)cc2)c(Oc2ccc(F)cc2)s1 [Example 6-9, N-{1-[5-(4-Fluoro-phenoxy)-4-(4-fluoro-phenyl)-thiazol-2-ylcarbamoyl]-1-methyl-ethyl}-nicotinamide]  622 nM
14. CC(C)(NC(=O)c1ccc(OC(F)(F)F)cc1)C(=O)Nc1nc(-c2ccc(F)cc2)c(Oc2ccc(F)cc2)s1 [Example 6-1, N-{1-[5-(4-Fluoro-phenoxy)-4-(4-fluoro-phenyl)-thiazol-2-ylcarbamoyl]-1-methyl-ethyl}-4-trifluoromethoxybenzamide]  910 nM
15. CC1(C(=O)NC(C)(C)C(=O)Nc2nc(C(F)(F)F)c(C(=O)c3ccc(F)cc3)s2)CC1 [Example 12-3, 1-Methyl-cyclopropanecarboxylic acid {1-[5-(4-fluoro-benzoyl)-4-trifluoromethyl-thiazol-2-ylcarbamoyl]-1-methyl-ethyl}-amide]  1180 nM
16. CC(C)(NC(=O)c1cnco1)C(=O)Nc1nc(-c2ccc(F)cc2)n(Cc2ccccc2)n1 [Example 14-24, Oxazole-5-carboxylic acid {1-[1-benzyl-5-(4-fluoro-phenyl)-1H-[1,2,4]triazol-3-ylcarbamoyl]-1-methyl-ethyl}-amide]  1750 nM
17. CC(C)(NC(=O)N1CCCOCC1)C(=O)Nc1nc(C(F)(F)F)c(C(=O)c2ccc(F)cc2)s1 [Example 12-4, [1,4]Oxazepane-4-carboxylic acid {1-[5-(4-fluoro-benzoyl)-4-trifluoromethyl-thiazol-2-ylcarbamoyl]-1-methyl-ethyl}-amide]  2080 nM
18. CN1CCC[C@H]1C(=O)NC(C)(C)C(=O)Nc1nc(-c2ccc(F)cc2)n(Cc2ccccc2)n1 [Example 14-3, (S)-1-Methyl-pyrrolidine-2-carboxylic acid {1-[1-benzyl-5-(4-fluoro-phenyl)-1H-[1,2,4]triazol-3-ylcarbamoyl]-1-methyl-ethyl}-amide]  2300 nM
19. Cc1cc(C(=O)NC(C)(C)C(=O)Nc2nc(-c3ccc(F)cc3)n(Cc3ccccc3)n2)no1 [Example 14-28, 5-Methyl-isoxazole-3-carboxylic acid {1-[1-benzyl-5-(4-fluoro-phenyl)-1H-[1,2,4]triazol-3-ylcarbamoyl]-1-methyl-ethyl}-amide]  6130 nM
